This test has as its system PO3. Put plainly: Antitumor activity in mouse PO3 cells xenografted mouse at 304.5 mg/kg after 31 days. Also noted: dose 304.5 mg/kg. In kind it is functional, organism-based.

Structures are written as SMILES. The source made the active and inactive calls. No cut-off for these calls is given here.

In the case of `CC/C=C/[C@]1(CC)C[C@@H](CC)[C@H](CC(=O)OCC)OO1`, the result was inactive.

The values above are taken from ChEMBL document CHEMBL1150934, “Cyclic polyketide peroxides and acyclic diol analogues from the sponge Plakortis lita” (J Nat Prod, 1998).
